Test results taken from publication PMC5827430, “Oxidation of the FAD cofactor to the 8-formyl-derivative in human electron-transferring flavoprotein” (The Journal of Biological Chemistry, 2018).
Where a chain is given by its changes, count along the chain named.

Columns and labels:
[1] = target: T1, hETF (human electron-transferring flavoprotein) (Homo sapiens, UniProt P13804+P38117, P13804:H286A); test: HPLC analysis of extracted cofactor; type: binding; conditions: purified at pH 7.0
T1 construct: gene ETFA; mature heterodimer from E. coli BL21(DE3), pET-28a+ operon; alpha from Gln-20; N-terminal His6 on beta (tag kept)
T1 sequence (P13804 20-333 H286A): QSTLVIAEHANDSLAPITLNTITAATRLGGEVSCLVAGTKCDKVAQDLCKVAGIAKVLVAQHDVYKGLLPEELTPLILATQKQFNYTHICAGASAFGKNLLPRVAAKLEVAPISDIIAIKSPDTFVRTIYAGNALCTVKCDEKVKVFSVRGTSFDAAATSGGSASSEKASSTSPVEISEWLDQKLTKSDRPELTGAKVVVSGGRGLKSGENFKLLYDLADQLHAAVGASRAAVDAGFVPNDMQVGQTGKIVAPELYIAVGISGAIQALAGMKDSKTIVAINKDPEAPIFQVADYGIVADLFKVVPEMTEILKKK
T1 sequence (P38117 1-255): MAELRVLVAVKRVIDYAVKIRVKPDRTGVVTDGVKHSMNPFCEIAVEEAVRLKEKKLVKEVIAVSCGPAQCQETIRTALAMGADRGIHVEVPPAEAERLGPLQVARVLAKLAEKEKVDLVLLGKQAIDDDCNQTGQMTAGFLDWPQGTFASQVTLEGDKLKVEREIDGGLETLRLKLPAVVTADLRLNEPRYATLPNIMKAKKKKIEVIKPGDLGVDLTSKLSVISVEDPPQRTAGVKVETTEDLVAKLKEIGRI

[2] = target: T2, hETF (human electron-transferring flavoprotein) (Homo sapiens, UniProt P13804+P38117, P38117:E165A); test: UV-visible absorption; steady-state kinetics of the FAD form; conditions: purified at pH 7.0
T2 construct: gene ETFA; mature heterodimer from E. coli BL21(DE3), pET-28a+ operon; alpha from Gln-20; N-terminal His6 on beta (tag kept)
T2 sequence (P13804 20-333): T1 sequence (P13804 20-333 H286A) with A267H
T2 sequence (P38117 1-255 E165A): T1 sequence (P38117 1-255) with E165A

In the case of `Cc1cc2nc3c(=O)[nH]c(=O)nc-3n(C[C@H](O)[C@H](O)[C@H](O)COP(=O)(O)OP(=O)(O)OC[C@H]3O[C@@H](n4cnc5c(N)ncnc54)[C@H](O)[C@@H]3O)c2cc1C` [FAD], the “HPLC analysis of extracted cofactor” value [1] is reported as “the FAD cofactor was bound weakly to the αH286A variant” and the “UV-visible absorption; steady-state kinetics of the FAD form” value [2] is reported as “FAD formylation was absent in the freshly purified variant βE165A”.
